# Reference: US10647713B2 (Nimbus Lakshmi, Inc., priority 2016, dated 2020)
# Molecular target: human TYK2 (JH2domain-pseudokinase) (Homo sapiens (Human), UniProt P29597)
# Test: TYK2 JH2 Domain Binding Assay (KINOMEscan, DiscoveRx)
# Conditions: 11-point dilution, duplicate
# How it was run: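 TYK2 JH2 (G556–D888)–NFkB DBD fusion, DNA-tagged, from HEK293 extracts (<0.1 nM) competed against immobilised biotinylated ligand for 1 h at room temperature, 0.9% DMSO. Bead-retained kinase quantified by qPCR; Kd from 11-point 3-fold series (top 30,000 nM, duplicate), Hill fit with slope −1.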
# Chain of human TYK2 (JH2domain-pseudokinase) (P29597 556-888): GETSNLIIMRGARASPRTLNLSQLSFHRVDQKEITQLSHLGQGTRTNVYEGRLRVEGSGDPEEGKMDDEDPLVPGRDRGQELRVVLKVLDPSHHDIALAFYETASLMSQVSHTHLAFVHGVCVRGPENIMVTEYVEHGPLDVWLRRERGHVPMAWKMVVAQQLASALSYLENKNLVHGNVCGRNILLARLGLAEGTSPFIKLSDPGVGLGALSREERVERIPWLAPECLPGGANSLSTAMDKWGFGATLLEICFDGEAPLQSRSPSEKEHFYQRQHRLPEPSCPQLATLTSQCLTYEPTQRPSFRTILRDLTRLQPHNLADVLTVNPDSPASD
row,SMILES,Kd [nM]
1,"Cc1nc2c(Nc3ccccc3[S@@+](C)[O-])cc(NC(=O)C3CC3)nc2[nH]1 [I-442, (R)—N-(2-methyl-7-((2-(methylsulfinyl)phenyl)amino)-3H-imidazo[4,5-b]pyridin-5-yl)cyclopropanecarboxamide]",> 10
2,"Cc1nc2c(Nc3ccc(C(F)(F)F)cc3S(C)(=O)=O)cc(NC(=O)C3CC3)nc2[nH]1 [I-259, N-(2-methyl-7-((2-(methylsulfonyl)-4-(trifluoromethyl)phenyl)amino)-3H-imidazo[4,5-b]pyridin-5-yl)cyclopropanecarboxamide]",1 to 10
3,"Cc1nc2c(Nc3ccc(-c4cncn4C)cc3N(C)S(C)(=O)=O)cc(NC(=O)C3CC3)nc2[nH]1 [I-153, N-(2-methyl-7-((4-(1-methyl-1H-imidazol-5-yl)-2-(N-methylmethylsulfonamido)phenyl)amino)-3H-imidazo[4,5-b]pyridin-5-yl)cyclopropanecarboxamide]",0.1 to 0.5
4,"COCc1nc(-c2ccc(Nc3cc(NC(=O)C4CC4)nc4[nH]c(C(F)F)nc34)c(S(C)(=O)=O)c2)sc1C [I-500, N-(2-(difluoromethyl)-7-((4-(4-(methoxymethyl)-5-methylthiazol-2-yl)-2-(methylsulfonyl)phenyl)amino)-3H-imidazo[4,5-b]pyridin-5-yl)cyclopropanecarboxamide]",0.1 to 0.5
5,"CS(=O)(=O)c1cc([C@@H]2CCCO2)ccc1Nc1cc(NC(=O)C2CC2(F)F)nc2[nH]c(C(F)F)nc12 (stereo partly drawn) [I-327, N-(2-(difluoromethyl)-7-((2-(methylsulfonyl)-4-((S)-tetrahydrofuran-2-yl)phenyl)amino)-3H-imidazo[4,5-b]pyridin-5-yl)-2,2-difluorocyclopropane-1-carboxamide]",0.1 to 0.5
6,"CC1(C)CC[C@H](c2ccc(Nc3cc(NC(=O)C4CC4)nc4[nH]c(C(F)F)nc34)c(S(C)(=O)=O)c2)O1 [I-498, (R)—N-(2-(difluoromethyl)-7-((4-(5,5-dimethyltetrahydrofuran-2-yl)-2-(methylsulfonyl)phenyl)amino)-3H-imidazo[4,5-b]pyridin-5-yl)cyclopropanecarboxamide]",0.1 to 0.5
7,"COc1c(Nc2cc(Nc3cc(C)c(F)cn3)nc3[nH]cnc23)cccc1-c1ncn(C)n1 [I-2, N5-(5-fluoro-4-methylpyridin-2-yl)-N7-(2-methoxy-3-(1-methyl-1H-1,2,4-triazol-3-yl)phenyl)-3H-imidazo[4,5-b]pyridine-5,7-diamine]",0.5 to 1
8,"CS(=O)(=O)c1cc([C@H]2CCCOC2)ccc1Nc1cc(NC(=O)[C@@H]2CC2(F)F)nc2[nH]c(C(F)F)nc12 [I-311, (S)—N-(2-(difluoromethyl)-7-((2-(methylsulfonyl)-4-((R)-tetrahydro-2H-pyran-3-yl)phenyl)amino)-3H-imidazo[4,5-b]pyridin-5-yl)-2,2-difluorocyclopropane-1-carboxamide]",1 to 10
9,CN=S(C)(=O)c1cc(-c2ccn(C)n2)ccc1Nc1cc(NC(=O)C2CC2)nc2[nH]c(C)nc12 (stereo not drawn) [I-640],0.1 to 0.5
10,"COC(C)c1ccc(Nc2cc(NC(=O)C3CC3)nc3[nH]c(C(F)F)nc23)c(S(C)(=O)=O)c1 (stereo not drawn) [I-402, N-(2-(difluoromethyl)-7-((4-(1-methoxyethyl)-2-(methylsulfonyl)phenyl)amino)-3H-imidazo[4,5-b]pyridin-5-yl)cyclopropanecarboxamide]",0.5 to 1
11,"Cc1nc2c(Nc3ccc([C@@H]4CCCO4)cc3S(C)(=O)=O)cc(NC(=O)C3CC3)nc2[nH]1 [I-472, (S)—N-(2-methyl-7-((2-(methylsulfonyl)-4-(tetrahydrofuran-2-yl)phenyl)amino)-3H-imidazo[4,5-b]pyridin-5-yl)cyclopropanecarboxamide]",0.1 to 0.5
12,"CS(=O)(=O)c1cc(F)ccc1Nc1cc(Nc2ccc(OC3CCOCC3)c(C#N)n2)nc2[nH]c(C(F)F)nc12 [I-625, 6-((2-(difluoromethyl)-7-((4-fluoro-2-(methylsulfonyl)phenyl)amino)-3H-imidazo[4,5-b]pyridin-5-yl)amino)-3-((tetrahydro-2H-pyran-4-yl)oxy)picolinonitrile]",0.1 to 0.5
13,"COc1c(Nc2cc(Nc3cnc(C(C)(C)OC)c(C#N)n3)nc3[nH]c(C(F)F)nc23)cccc1-c1nnn(C)n1 [I-80, 6-((2-(difluoromethyl)-7-((2-methoxy-3-(2-methyl-2H-tetrazol-5-yl)phenyl)amino)-3H-imidazo[4,5-b]pyridin-5-yl)amino)-3-(2-methoxypropan-2-yl)pyrazine-2-carbonitrile]",1 to 10
14,"Cn1cnc(-c2ccc(Nc3cc(NC(=O)[C@@H]4CC4(F)F)nc4[nH]c(C(F)F)nc34)c(S(C)(=O)=O)c2)c1 [I-245, (S)—N-(2-(difluoromethyl)-7-((4-(1-methyl-1H-imidazol-4-yl)-2-(methylsulfonyl)phenyl)amino)-3H-imidazo[4,5-b]pyridin-5-yl)-2,2-difluorocyclopropane-1-carboxamide]",1 to 10
15,"CS(=O)(=O)c1cc([C@H]2CCCOC2)ccc1Nc1cc(NC(=O)[C@H]2CC2(F)F)nc2[nH]c(C(F)F)nc12 [I-310, (R)—N-(2-(difluoromethyl)-7-((2-(methylsulfonyl)-4-((R)-tetrahydro-2H-pyran-3-yl)phenyl)amino)-3H-imidazo[4,5-b]pyridin-5-yl)-2,2-difluorocyclopropane-1-carboxamide]",0.5 to 1
16,"CS(=O)(=O)c1cc(F)ccc1Nc1cc(NC(=O)C2CC2)nc2[nH]c(C(F)F)nc12 [I-85, N-(2-(difluoromethyl)-7-((4-fluoro-2-(methylsulfonyl)phenyl)amino)-3H-imidazo[4,5-b]pyridin-5-yl)cyclopropanecarboxamide]",0.5 to 1

# More lines, now with the values ahead:
row,Kd [nM],SMILES
1,0.1 to 0.5,CN=[S@](C)(=O)c1cc(-c2cnn(C)c2C)ccc1Nc1cc(NC(=O)C2CC2)nc2[nH]c(C(F)F)nc12 [I-638]
2,0.1 to 0.5,"COCCOc1ccc(Nc2cc(Nc3ccc(F)cc3S(C)(=O)=O)c3nc(C(F)F)[nH]c3n2)nc1C#N [I-621, 6-((2-(difluoromethyl)-7-((4-fluoro-2-(methylsulfonyl)phenyl)amino)-3H-imidazo[4,5-b]pyridin-5-yl)amino)-3-(2-methoxyethoxy)picolinonitrile]"
3,0.1 to 0.5,"Cc1nc(-c2ccc(Nc3cc(NC(=O)C4CC4)nc4[nH]c(C(F)F)nc34)c(S(C)(=O)=O)c2)c(C)s1 [I-481, N-(2-(difluoromethyl)-7-((4-(2,5-dimethylthiazol-4-yl)-2-(methylsulfonyl)phenyl)amino)-3H-imidazo[4,5-b]pyridin-5-yl)cyclopropanecarboxamide]"
4,0.1 to 0.5,"Cc1nc2c(Nc3ccc([C@@H]4CCCO4)cc3S(C)(=O)=O)cc(Nc3cccc(C#N)n3)nc2[nH]1 [I-570, (S)-6-((2-methyl-7-((2-(methylsulfonyl)-4-(tetrahydrofuran-2-yl)phenyl)amino)-3H-imidazo[4,5-b]pyridin-5-yl)amino)picolinonitrile]"
5,0.1 to 0.5,Cc1cc(-c2ccc(Nc3cc(Nc4cccc(C#N)n4)nc4[nH]c(C(F)F)nc34)c(S(C)(=O)=O)c2)nn1C [I-277]
6,0.1 to 0.5,"Cc1c(-c2ccc(Nc3cc(Nc4cccc(C(F)(F)F)n4)nc4[nH]c(C(F)F)nc34)c(S(C)(=O)=O)c2)cnn1C [I-493, 2-(difluoromethyl)-N7-(4-(1,5-dimethyl-1H-pyrazol-4-yl)-2-(methylsulfonyl)phenyl)-N5-(6-(trifluoromethyl)pyridin-2-yl)-3H-imidazo[4,5-b]pyridine-5,7-diamine]"
7,0.1 to 0.5,"Cc1nc2c(Nc3ccc(C4CCOC4)cc3S(C)(=O)=O)cc(NC(=O)C3CC3)nc2[nH]1 (stereo not drawn) [I-388, N-(2-methyl-7-((2-(methylsulfonyl)-4-(tetrahydrofuran-3-yl)phenyl)amino)-3H-imidazo[4,5-b]pyridin-5-yl)cyclopropanecarboxamide]"
8,0.1 to 0.5,"Cc1nc2c(Nc3ccc(C4CCC4)cc3P(C)(C)=O)cc(NC(=O)C3CC3)nc2[nH]1 [I-445, N-(7-((4-cyclobutyl-2-(dimethylphosphoryl)phenyl)amino)-2-methyl-3H-imidazo[4,5-b]pyridin-5-yl)cyclopropanecarboxamide]"
9,0.1 to 0.5,"CS(=O)(=O)c1cc(C2CC2)ccc1Nc1cc(Nc2cc3n(n2)CCCCC3)nc2[nH]c(C(F)F)nc12 [I-409, N7-(4-cyclopropyl-2-(methylsulfonyl)phenyl)-2-(difluoromethyl)-N5-(5,6,7,8-tetrahydro-4H-pyrazolo[1,5-a]azepin-2-yl)-3H-imidazo[4,5-b]pyridine-5,7-diamine]"
10,0.1 to 0.5,"Cc1nc2c(Nc3ccc(-c4ccn(C)n4)cc3N(C)S(C)(=O)=O)cc(NC(=O)C3CC3)nc2[nH]1 [I-174, N-(2-methyl-7-((4-(1-methyl-1H-pyrazol-3-yl)-2-(N-methyl-methysulfonamido)phenyl)amino)-3H-imidazo[4,5-b]pyridin-5-yl)cyclopropanecarboxamide]"
11,< 0.1,Cc1cc(Nc2cc(Nc3ccc([C@@H]4CCCCO4)cc3S(C)(=O)=O)c3nc(C)[nH]c3n2)nc(C)n1 [I-530]
12,0.1 to 0.5,"Cc1cc(Nc2cc(Nc3ccc(C4CC4)cc3S(C)(=O)=O)c3nc(C)[nH]c3n2)nc(C)n1 [I-434, N7-(4-cyclopropyl-2-(methylsulfonyl)phenyl)-N5-(2,6-dimethylpyrimidin-4-yl)-2-methyl-3H-imidazo[4,5-b]pyridine-5,7-diamine]"
13,< 0.1,"Cc1cc(Nc2cc(Nc3ccc([C@H]4CCCCO4)cc3S(C)(=O)=O)c3nc(C(F)F)[nH]c3n2)nc(C)n1 [I-494, (R)-2-(difluoromethyl)-N5-(2,6-dimethylpyrimidin-4-yl)-N7-(2-(methylsulfonyl)-4-(tetrahydro-2H-pyran-2-yl)phenyl)-3H-imidazo[4,5-b]pyridine-5,7-diamine]"
14,< 0.1,"Cc1cc(Nc2cc(Nc3ccc(C4CCCCO4)cc3S(C)(=O)=O)c3nc(C)[nH]c3n2)nc(C)n1 (stereo not drawn) [I-367, N5-(2,6-dimethylpyrimidin-4-yl)-2-methyl-N7-(2-(methylsulfonyl)-4-(tetrahydro-2H-pyran-2-yl)phenyl)-3H-imidazo[4,5-b]pyridine-5,7-diamine]"
